Measurements as given in patent publication US20260125374A1, “PI3K-ALPHA INHIBITORS AND METHODS OF MAKING AND USING THE SAME” (Relay Therapeutics, Inc., priority 2021, published 2026).
Marks after values point to notes of the source that are not given here.

Assay: Polymorph screening (equilibration, anti-solvent, slow evaporation, slow cooling, temperature cycling, heating-cooling; XRPD and SFC)
Type: physicochemical
Description: This polymorph screening program of compound I-1 free form was performed with two batches of the pure enantiomer. Both batches are crystalline and is assigned as Form A. The polymorphic behaviors of the enantiomer were investigated by equilibration at 25° C. and 50° C., equilibration under a temperature cycle, crystallization from hot saturated solutions by slow cooling, slow evaporation, precipitation by addition of anti-solvent, and DSC heating-cooling cycle experiments. Relative stability of identified polymorphs was investigated by competitive slurry experiments.
About 50 mg of I-1 Form A was weighed into a 2 mL glass vial and equilibrated in suitable amount of solvents (pretreated by molecular sieves) at 25° C. for 2 weeks with a stirring plate and with protection from light. Obtained suspensions were filtered with 0.45 μm nylon membrane and the solid parts (wet cake) were investigated by XRPD. When differences were observed, additional investigations were performed (e.g. DSC, TGA, ^1H-NMR, SFC).
About 50 mg of I-1 Form A was weighed into 2 mL glass vials and equilibrated in suitable amount of solvents (pretreated by molecular sieves) at 50° C. for 10 days with a stirring plate and with protection from light. Obtained suspensions were filtered with 0.45 μm nylon membrane and the solid parts (wet cake) were investigated by XRPD. When differences were observed, additional investigation was performed (e.g. DSC, TGA, ^1H-NMR, SFC).
I-1 Form A was dissolved in a good solvent. […] The solvents used were pretreated by molecular sieve. Precipitates were collected by filtration. The solid part (wet cake) was investigated by XRPD. […] When differences were observed, additional investigations were performed (e.g. DSC, TGA, ^1H-NMR, SFC).
Based on approximate solubility results, I-1 Form A was dissolved in suitable amount of solvents (pretreated by molecular sieves). Obtained solutions were filtered by 0.45 μm nylon filter. […] Solid residues were examined for their polymorphic form. When differences were observed, additional investigations were performed (e.g. DSC, TGA, ^1H-NMR, SFC).
Approximate 50 mg of batch I-1 Form A were dissolved in the minimal amount of selected solvents (without pretreatment by molecular sieves) at 50° C. Obtained solutions were filtered by 0.45 μm nylon filter. […] Precipitates were collected by filtration. The solid parts (wet cake) were investigated by XRPD. When differences were observed, additional investigations were performed (e.g. DSC, TGA, ^1H-NMR, SFC). When no precipitation was obtained or only a few solids were obtained, the solutions were placed at 5° C. for crystallization.
About 50 mg of I-1 Form A was equilibrated in different solvents (pretreated by molecular sieves) under a temperature cycle between 5° C. to 50° C. at a heating/cooling rate of 0.2° C./min for 10 cycles and with protection from light. After 10 cycles, precipitates were collected at 5° C. by filtration. The solid parts (wet cake) were investigated by XRPD. When differences were observed, additional investigations were performed (e.g. DSC, TGA, 1H-NMR, SFC).
Polymorphic behavior of I-1 Form A was investigated by two different heating-cooling cycles of DSC. Cycle 1:30° C. to 280° C. at 10° C./min; 280° C. to −20° C. at 20° C./min; reheat to 300° C. at 10° C./min. Cycle 2:30° C. to 280° C. at 10° C./min; 280° C. to-20° C. at 2° C./min; reheat to 300° C. at 10° C./min.

[1] = anti-solvent Acetone / Heptane(2V), added III-1 Form D seeds, stirred for 1 h
[2] = anti-solvent MeOH / Water(0.1V), III-1 Form A seeds, stirred for 2 days
[3] = anti-solvent THF / MTBE(1.5V), added I-1 Form C seeds, stirred for 2 h

**Q.** For `N#Cc1c(-c2cc(NC(=O)c3cc(F)cc(C(F)(F)F)c3)c3c(c2)C(=O)N[C@H]3c2cc(F)ccc2Cl)ccc2ncnn12` [Compound I-1, (R)-N-(3-(2-chloro-5-fluorophenyl)-6-(5-cyano-[1,2,4]triazolo[1,5-a]pyridin-6-yl)-1-oxoisoindolin-4-yl)-3-fluoro-5-(trifluoromethyl)benzamide], which XRPD [1] is on record?
**A.** Its XRPD is “I-1 Form A”.

**Q.** And the “ee %(SFC)” value [1]?
**A.** The value was “ee %(SFC): 94.9%*”.

**Q.** What about the “ee %(SFC)” value (anti-solvent MeOH / Water(0.1V), III-1 Form A seeds, stirred for 2 h) of the same compound?
**A.** The value was “ee %(SFC): 98.8%*”.

**Q.** And the XRPD [2]?
**A.** The XRPD was “I-1 Form A”.

**Q.** What about the “ee %(SFC)” value [2] of the same compound?
**A.** Its value is “ee %(SFC): 99.2%*”.

**Q.** What about the XRPD [3] of the same compound?
**A.** The XRPD was “I-1 Form C”.

**Q.** And the “ee %(SFC)” value [3]?
**A.** Its value is “ee %(SFC): 99.5%*”.

**Q.** And the XRPD (anti-solvent precipitation at 25° C.: Acetone / Heptane(2V))?
**A.** The XRPD was “I-1 Form A”.

**Q.** And the XRPD (anti-solvent precipitation at 25° C.: Acetone / MTBE(4V))?
**A.** Its XRPD is “I-1 Form A”.

**Q.** What about the XRPD (anti-solvent precipitation at 25° C.: MeOH / MTBE(4V), stirred at 25° C. for 23 days) of the same compound?
**A.** The XRPD was “I-1 Form E”.

**Q.** And the “Comments (outcome)” value (anti-solvent precipitation at 25° C.: MeOH / Toluene(4V))?
**A.** Its value is “Clear solution”.

**Q.** What about the XRPD (anti-solvent precipitation at 25° C.: THF / Heptane(1.5V)) of the same compound?
**A.** The XRPD was “I-1 Form C”.

**Q.** And the XRPD (anti-solvent precipitation at 25° C.: THF / MTBE(4V))?
**A.** Its XRPD is “I-1 Form C”.

**Q.** And the “ee %(SFC)” value (anti-solvent precipitation: MeOH / MTBE(4V), stirred at 25° C. for 23 days, SFC immediately after preparation)?
**A.** Its value is “ee % (SFC): 2.7%*”.

**Q.** What about the “ee %(SFC)” value (anti-solvent precipitation: THF / MTBE(4V), SFC immediately after preparation) of the same compound?
**A.** Its value is “ee % (SFC): 100.0%*”.

**Q.** What about the “racemization in organic solvents (free form polymorph study)” value (certain organic solvents, including methanol and IPAc) of the same compound?
**A.** Its value is “easily racemized”.

**Q.** And the XRPD (equilibration at 25° C. for 2 weeks in 1,4-Dioxane)?
**A.** Its XRPD is “I-1 Form A”.

**Q.** And the XRPD (equilibration at 25° C. for 2 weeks in 2-MeTHF)?
**A.** Its XRPD is “I-1 Form A”.

**Q.** And the XRPD (equilibration at 25° C. for 2 weeks in ACN/water(90:10, v/v) a.w. 0.9)?
**A.** Its XRPD is “I-1 + I-2 mixture”.

**Q.** And the “ee %(SFC)” value (equilibration at 25° C. for 2 weeks in ACN/water(90:10, v/v), SFC immediately after preparation)?
**A.** The value was “ee % (SFC): 89.6%*”.

**Q.** What about the XRPD (equilibration at 25° C. for 2 weeks in Acetone) of the same compound?
**A.** Its XRPD is “I-1 + I-2 mixture”.

**Q.** And the XRPD (equilibration at 25° C. for 2 weeks in Acetone/water(60:40, v/v) a.w. 0.8)?
**A.** Its XRPD is “I-1 + I-2 mixture”.

**Q.** What about the XRPD (equilibration at 25° C. for 2 weeks in Acetonitrile) of the same compound?
**A.** The XRPD was “I-1 Form A”.

**Q.** What about the XRPD (equilibration at 25° C. for 2 weeks in Benzyl alcohol) of the same compound?
**A.** The XRPD was “I-1 Form A”.

**Q.** And the XRPD (equilibration at 25° C. for 2 weeks in Dichloromethane)?
**A.** Its XRPD is “I-1 Form A”.

**Q.** What about the XRPD (equilibration at 25° C. for 2 weeks in Ethanol) of the same compound?
**A.** Its XRPD is “I-1 Form A”.

**Q.** What about the XRPD (equilibration at 25° C. for 2 weeks in Ethyl acetate) of the same compound?
**A.** Its XRPD is “I-1 Form A”.

**Q.** What about the XRPD (equilibration at 25° C. for 2 weeks in Isopropyl acetate) of the same compound?
**A.** Its XRPD is “I-1 Form A”.

**Q.** And the XRPD (equilibration at 25° C. for 2 weeks in MeOH/water(55:45, v/v) a.w. 0.7)?
**A.** Its XRPD is “I-1 Form A”.

**Q.** What about the XRPD (equilibration at 25° C. for 2 weeks in Methanol) of the same compound?
**A.** Its XRPD is “I-1 + I-2 mixture”.

**Q.** What about the XRPD (equilibration at 25° C. for 2 weeks in Methyl ethyl ketone) of the same compound?
**A.** Its XRPD is “I-1 Form A”.

**Q.** And the XRPD (equilibration at 25° C. for 2 weeks in THF/water(85:15, v/v) a.w. 0.9, target concentration 510 mg/mL)?
**A.** Its XRPD is “III-1 Form B”.

**Q.** What about the XRPD (equilibration at 25° C. for 2 weeks in Tetrahydrofuran) of the same compound?
**A.** Its XRPD is “I-1 Form A”.

**Q.** And the XRPD (equilibration at 25° C. for 2 weeks in Water)?
**A.** The XRPD was “I-1 + I-2 mixture”.

**Q.** And the XRPD (equilibration at 25° C. for 2 weeks in t-Butyl methyl ether)?
**A.** Its XRPD is “I-1 Form A”.

**Q.** What about the “XRPD (4 days)” value (equilibration at 25° C. in THF/water(85:15, v/v) a.w. 0.9, added III-1 Form B seeds) of the same compound?
**A.** The value was “I-1 + II-1 mixture”.

**Q.** What about the “ee %(SFC)” value (equilibration at 25° C. in THF/water(85:15, v/v), 4 days, added III-1 Form B seeds) of the same compound?
**A.** The value was “ee %(SFC): 93.8%*”.

**Q.** What about the XRPD (equilibration at 50° C. for 10 days in 1,4-Dioxane) of the same compound?
**A.** The XRPD was “I-1 Form B”.

**Q.** And the “ee %(SFC)” value (equilibration at 50° C. for 10 days in 1,4-Dioxane, SFC immediately after preparation)?
**A.** Its value is “ee % (SFC): 100.0%*”.

**Q.** And the XRPD (equilibration at 50° C. for 10 days in ACN/water(80:20, v/v) a.w. 0.9)?
**A.** The XRPD was “III-1 Form A”.

**Q.** What about the “ee %(SFC)” value (equilibration at 50° C. for 10 days in ACN/water(80:20, v/v), SFC immediately after preparation) of the same compound?
**A.** Its value is “ee % (SFC): 50.7%*”.

**Q.** What about the XRPD (equilibration at 50° C. for 10 days in Acetone) of the same compound?
**A.** The XRPD was “I-1 Form A”.

**Q.** And the XRPD (equilibration at 50° C. for 10 days in Acetone/water(60:40, v/v) a.w. 0.8)?
**A.** The XRPD was “III-1 Form C”.

**Q.** What about the “ee %(SFC)” value (equilibration at 50° C. for 10 days in Acetone/water(60:40, v/v), SFC immediately after preparation) of the same compound?
**A.** Its value is “ee % (SFC): 56.9%*”.

**Q.** And the XRPD (equilibration at 50° C. for 10 days in Acetonitrile)?
**A.** Its XRPD is “I-1 Form A”.

**Q.** And the XRPD (equilibration at 50° C. for 10 days in Anisole)?
**A.** Its XRPD is “I-1 Form A”.

**Q.** And the XRPD (equilibration at 50° C. for 10 days in EtOH/water(50:50, v/v) a.w. 0.9)?
**A.** The XRPD was “III-1 Form A”.

**Q.** And the “ee %(SFC)” value (equilibration at 50° C. for 10 days in EtOH/water(50:50, v/v), SFC after preparation for about 12 h)?
**A.** The value was “ee % (SFC): 75.0%#;”.

**Q.** What about the “ee %(SFC)” value (equilibration at 50° C. for 10 days in EtOH/water(50:50, v/v), SFC immediately after preparation) of the same compound?
**A.** Its value is “ee % (SFC): 76.9%*,”.

**Q.** What about the XRPD (equilibration at 50° C. for 10 days in Ethanol) of the same compound?
**A.** The XRPD was “I-1 Form A”.
